Laboratory results published in PubChem BioAssay AID1963858 (Molecular Pharmacology Branch, DTP, NCI, 2024).

Test system: HOP-62 multicell spheroids with HUVEC/MSC, viability
Assay: Anticancer human tumor HOP-62 cell line growth inhibition [KRAS2];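 also: viability read after a week of compound exposure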;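 as to viability, T/C: 100% = DMSO vehicle-treated spheroids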
Settings: for IC50: curve of first compound; for viability, T/C: stronger effect = lower value
How it was run: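 KRAS-mutant tumor cells were grown as spheroids with HUVEC endothelial cells and human MSCs as stroma. Targeted agents were tested alone and with KRAS pathway inhibitors. Doses started at or near clinical Cmax, or 10 microM, descending half-log.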

[1] = second compound 0.1 µM, first compound 0.0316 µM
[2] = second compound 0.1 µM, first compound 0.1 µM
[3] = second compound 0.1 µM, first compound 0.316 µM
[4] = second compound 0.1 µM, first compound 1 µM
[5] = second compound 0.1 µM, first compound 3.16 µM
[6] = second compound 0.1 µM, first compound 10 µM
[7] = second compound 0.316 µM, first compound 0.0316 µM
[8] = second compound 0.316 µM, first compound 0.1 µM
[9] = second compound 0.316 µM, first compound 0.316 µM
[10] = second compound 0.316 µM, first compound 1 µM
[11] = second compound 0.316 µM, first compound 3.16 µM
[12] = second compound 0.316 µM, first compound 10 µM
[13] = second compound 1 µM, first compound 0.0316 µM
[14] = second compound 1 µM, first compound 0.1 µM
[15] = second compound 1 µM, first compound 0.316 µM
[16] = second compound 1 µM, first compound 1 µM
[17] = second compound 1 µM, first compound 3.16 µM
[18] = second compound 1 µM, first compound 10 µM
[19] = second compound 3.16 µM, first compound 0.0316 µM
[20] = second compound 3.16 µM, first compound 0.1 µM
[21] = second compound 3.16 µM, first compound 0.316 µM
[22] = second compound 3.16 µM, first compound 1 µM
[23] = second compound 3.16 µM, first compound 3.16 µM
[24] = second compound 3.16 µM, first compound 10 µM
[25] = second compound 10 µM, first compound 0.0316 µM
[26] = second compound 10 µM, first compound 0.1 µM
[27] = second compound 10 µM, first compound 0.316 µM
[28] = second compound 10 µM, first compound 1 µM
[29] = second compound 10 µM, first compound 3.16 µM
[30] = second compound 10 µM, first compound 10 µM

Structure (SMILES) | IC50 (second compound 0.1 µM) | IC50 (second compound 0.316 µM) | IC50 (second compound 1 µM) | IC50 (second compound 3.16 µM) | IC50 (second compound 10 µM) | viability, T/C [1] | viability, T/C [2] | viability, T/C [3] | viability, T/C [4] | viability, T/C [5] | viability, T/C [6] | viability, T/C [7] | viability, T/C [8] | viability, T/C [9] | viability, T/C [10] | viability, T/C [11] | viability, T/C [12] | viability, T/C [13] | viability, T/C [14] | viability, T/C [15] | other results
COc1cc(Nc2ncc3c(n2)-c2ccc(Cl)cc2C(c2c(F)cccc2OC)=NC3)ccc1C(=O)O + CNCc1ccccc1-c1csc(C(C)Nc2nc(C)nc3cc(OC)c(OC)cc23)c1 | 0.274 µM | 0.143 µM | 0.0396 µM | < 0.0316 µM | < 0.0316 µM | 69.4% | 57.7% | 44.5% | 43.8% | 30.5% | 19.6% | 59.5% | 54.2% | 42.4% | 37% | 27.3% | 20.3% | 51.4% | 46.3% | 37.3% | viability, T/C [16]: 34.6%; viability, T/C [17]: 27.4%; viability, T/C [18]: 17.9%; viability, T/C [19]: 15.7%; viability, T/C [20]: 0.89%; viability, T/C [21]: 10.6%; viability, T/C [22]: 4.93%; viability, T/C [23]: 0.62%; viability, T/C [24]: 4.15%; viability, T/C [25]: 0.12%; viability, T/C [26]: 0.2%; viability, T/C [27]: 1.86%; viability, T/C [28]: 0.11%; viability, T/C [29]: 2.34%; viability, T/C [30]: 0.17%
COc1cc2nccc(Oc3ccc(NC(=O)C4(C(=O)Nc5ccc(F)cc5)CC4)cc3)c2cc1OC + CNCc1ccccc1-c1csc(C(C)Nc2nc(C)nc3cc(OC)c(OC)cc23)c1 | 5.36 µM | 4.8 µM | 3.67 µM | < 0.0316 µM | < 0.0316 µM | 92.4% | 94.1% | 102% | 96.3% | 76% | 19.3% | 90.6% | 82.8% | 81.7% | 86.9% | 69.8% | 15.2% | 74.7% | 79.2% | 85.6% | viability, T/C [16]: 80.7%; viability, T/C [17]: 57.5%; viability, T/C [18]: 0.44%; viability, T/C [19]: 0.34%; viability, T/C [20]: 0.17%; viability, T/C [21]: 0.13%; viability, T/C [22]: 0.15%; viability, T/C [23]: 0.22%; viability, T/C [24]: 0.14%; viability, T/C [25]: 0.12%; viability, T/C [26]: 0.14%; viability, T/C [27]: 0.12%; viability, T/C [28]: 0.11%; viability, T/C [29]: 0.12%; viability, T/C [30]: 0.19%
O=C(c1cc(Cc2n[nH]c(=O)c3ccccc23)ccc1F)N1CCN(C(=O)C2CC2)CC1 + CNCc1ccccc1-c1csc(C(C)Nc2nc(C)nc3cc(OC)c(OC)cc23)c1 | 7.08 µM | 6.81 µM | 6.1 µM | < 0.0316 µM | < 0.0316 µM | 105% | 106% | 97.6% | 86% | 65.7% | 43.3% | 85.7% | 84.3% | 83.2% | 85.3% | 65.9% | 42.1% | 84.7% | 85.3% | 78.9% | viability, T/C [16]: 83.2%; viability, T/C [17]: 59.5%; viability, T/C [18]: 42.8%; viability, T/C [19]: 35.1%; viability, T/C [20]: 35.4%; viability, T/C [21]: 28.4%; viability, T/C [22]: 0.6%; viability, T/C [23]: 42.3%; viability, T/C [24]: 0.43%; viability, T/C [25]: 0.17%; viability, T/C [26]: 0.21%; viability, T/C [27]: 29.1%; viability, T/C [28]: 0.15%; viability, T/C [29]: 0.14%; viability, T/C [30]: 1.69%
